Experiment [1] can be described thus: Inhibitory activity against non-nucleoside reverse transcriptase inhibitors (NNRTI) -resistant HIV-1 strain A17 with a Y181C mutation in RT (reverse transcriptase).
Experiment in experiment [2]: as above
The source holds these as a separate data set.

The nature of experiment [3]: Inhibitory activity against non-nucleoside reverse transcriptase inhibitors (NNRTI) -resistant HIV-1 strain A17 with a Y181C mutation in reverse transcriptase.

`CCC(NC(=S)Nc1nccs1)c1ccccc1` (stereo not given) [1-(1-Phenyl-propyl)-3-thiazol-2-yl-thiourea] showed an IC50 in experiment [1] of 2100 nM.
`S=C(NCCC1=CCCCC1)Nc1nccs1` [1-(2-Cyclohex-1-enyl-ethyl)-3-thiazol-2-yl-thiourea]: 900 nM corresponded to half-maximal inhibition in experiment [2] (IC50).
Same read-out and setting: the result for `S=C(NCCOc1ccccc1)Nc1nccs1` [1-(2-Phenoxy-ethyl)-3-thiazol-2-yl-thiourea] reads 4400 nM.
In experiment [1], `S=C(NCCc1cccs1)Nc1ccc(Br)cn1` [1-(5-Bromo-pyridin-2-yl)-3-(2-thiophen-2-yl-ethyl)-thiourea] gave an IC50 of 48 nM.
On the same count and under the same terms, the result for `Oc1ccc(CCNC(=S)Nc2ccc(Br)cn2)cc1` [1-(5-Bromo-pyridin-2-yl)-3-[2-(4-hydroxy-phenyl)-ethyl]-thiourea] reads 70 nM.
Regarding `S=C(NCC12CC3CC(CC(C3)C1)C2)Nc1nccs1` [1-Adamantan-1-ylmethyl-3-thiazol-2-yl-thiourea], the half-inhibitory concentration (IC50) in experiment [2] worked out at 600 nM.
Still for that read-out and setting: to `S=C(NCc1ccco1)Nc1nccs1` [1-Furan-2-ylmethyl-3-thiazol-2-yl-thiourea] belongs 2000 nM; to `Cc1ccc(CCNC(=S)Nc2nccs2)cc1` [1-Thiazol-2-yl-3-(2-p-tolyl-ethyl)-thiourea], 3900 nM.
In turn, `S=C(NCCc1cccs1)Nc1nccs1` [1-Thiazol-2-yl-3-(2-thiophen-2-yl-ethyl)-thiourea] displayed an IC50 in experiment [3] of over 100 µM.
In turn, `S=C(NCCc1c[nH]c2ccccc12)Nc1nccs1` [1-[2-(1H-Indol-3-yl)-ethyl]-3-thiazol-2-yl-thiourea] had an IC50 in experiment [2] of 2200 nM.

Source of the values: BindingDB's records for doi:10.1016/s0960-894x(01)00011-7 (Institute, 2001).
